Test results taken from US7736909B2, “Methods and compositions comprising capture agents” (Board of Regents, the University of Texas System, priority 2003, dated 2010).
Like-named read-outs stand apart in the source and are kept apart here. Non-standard residues stand in square brackets, D forms with d. Residues, ends and D or L forms follow the SMILES beside them. N(4-Sulfamoylphenethyl)Gly = NS(=O)(=O)c1ccc(CCNCC(=O)O)cc1; Gly(N-piperonyl) = O=C(O)CNCc1ccc2c(c1)OCO2; Gly(N-CH2CH2OH) = O=C(O)CNCCO; Nlys = NCCCCNCC(=O)O

Assays:
GST = molecular target: T1, GST (Schistosoma japonicum, UniProt P08515); assay: isothermal titration calorimetry (ITC); type: binding; details: in solution; read-out: equilibrium dissociation constant, ITC
T1 construct: made in house; host or cells: E. coli BL21-RIL
T1 sequence (P08515 whole entry): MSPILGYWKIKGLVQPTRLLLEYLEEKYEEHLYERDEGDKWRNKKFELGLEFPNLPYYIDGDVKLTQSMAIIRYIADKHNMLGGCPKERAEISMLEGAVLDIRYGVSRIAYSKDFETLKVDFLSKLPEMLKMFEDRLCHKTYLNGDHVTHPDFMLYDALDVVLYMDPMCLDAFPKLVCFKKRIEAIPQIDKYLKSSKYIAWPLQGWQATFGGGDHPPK
Protocol: (§1) Isothermal titration calorimetry (ITC). ITC experiments were conducted on a MicroCal VP-ITC instrument. For the titration, 70 μM MBP-hmdm2 or 30 μM GST in PBS+10% DMSO was taken in the sample cell. To this, 15 μl aliquots of the peptoid solution in the same buffer were added from a computer-controlled 250 μl rotating syringe. The syringe was set at 400 rpm with intervals of 3 minutes between injections to attain baseline stabilization. The heat absorbed or released accompanying the titration was recorded as differential power (DP) by the instrument software. Experiments were carried out with C values between 1 and 400. The total heat recorded was then fitted via a non-linear least-squares minimization method. Titration of the ligand solution with the buffer alone gave the heats of dilution. Titration with MBP alone was recorded under identical conditions.

solubility observations = type: physicochemical
MBP-Mdm2 [1] = molecular target: T2, MBP-Mdm2 (UniProt P0AEX9+Q00987); assay: isothermal titration calorimetry (ITC); type: binding, human
T2 construct: The domain of the human Mdm2 protein represented by residues 1-188 is a structurally characterized monomer; made in house; host or cells: E. coli BL21-RIL
T2 sequence (Q00987 whole entry, looked up, other chains not shown, the tested form may be a part): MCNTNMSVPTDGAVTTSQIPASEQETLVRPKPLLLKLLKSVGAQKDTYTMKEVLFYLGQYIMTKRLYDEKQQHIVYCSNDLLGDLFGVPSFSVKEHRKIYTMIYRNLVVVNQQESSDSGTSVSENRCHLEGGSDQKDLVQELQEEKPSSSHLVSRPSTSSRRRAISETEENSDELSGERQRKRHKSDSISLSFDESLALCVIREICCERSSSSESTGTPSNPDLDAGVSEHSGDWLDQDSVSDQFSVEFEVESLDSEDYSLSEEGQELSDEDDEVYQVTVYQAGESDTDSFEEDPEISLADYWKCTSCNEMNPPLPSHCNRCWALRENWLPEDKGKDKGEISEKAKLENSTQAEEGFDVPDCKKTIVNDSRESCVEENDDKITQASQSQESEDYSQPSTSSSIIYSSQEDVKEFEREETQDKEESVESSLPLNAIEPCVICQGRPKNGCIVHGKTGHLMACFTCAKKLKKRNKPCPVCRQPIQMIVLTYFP
Protocol: as §1

MBP-Mdm2 [2] = molecular target: T2, MBP-Mdm2; type: binding, human
Protocol: Five milligrams of TentaGel beads (displaying the respective hit sequences, Nlys-Nbsa-Nlys-Nser-Nbsa-Npip-Nbsa-Npip-CONH2 and Nbsa-Nlys-Nbsa-Npip-Nlys-CONH2 or a random sequence Npip-Nser-Nbsa-Nall-Nlys-Npip-CONH2) were equilibrated in phosphate-buffered saline (PBS) for 60 minutes. The buffer was removed and the beads were blocked with 2% BSA for 60 minutes to saturate any non-specific binding sites. The beads were then washed with PBS (3 times), and incubated with 500 nM (unless indicated otherwise) of a Texas Red-labeled protein (MBP-MDM2 or GST) in 2% BSA (in 1×TBST buffer), in a 300 μL volume for 60 minutes. The beads were washed with TBST six times to remove any unbound protein and photographed under a fluorescence microscope. Studies that employed native (unlabeled) proteins were performed as follows. Ten milligrams of beads displaying the peptoid were exposed to 1 μM protein in the presence of 1000-fold excess E. coli lysate, 0.2% Tween-20 and 0.2 M NaCl in a total volume of 2 ml at RT for 2 hrs. The beads were washed three times with TBST (20 mM Tris buffered saline+0.1% Tween-20). Ten microliters of 2×SDS-PAGE loading dye was then added directly to these beads and they were boiled for 10 mins.
To probe the binding chemistry of chimeric binding ligand formula 2 on a solid support, which is more relevant to the issue of creating high affinity protein capture agents, TentaGel beads were prepared that display either chalcone formula 1 alone, the 10 mer peptoid NH2-Nlys-Npip-Nlys-Nser-Nlys-Nlys-Nlys-Nlys-Npip-Npip alone, or the chalcone-peptoid chimeric binding element of formula 2. In the experiment shown in FIG. 24D, the beads and the Texas Red-labeled proteins (100 nM) indicated in the figure were incubated under demanding buffer conditions (1M NaCl and 1% Tween-20 in the presence of a 100-fold excess of E. coli proteins), then washed thoroughly. Two populations of beads were then mixed in a 1:1 ratio and photographed under a fluorescence microscope to provide a direct comparison.
After thorough washing, the beads were photographed in the fluorescence microscope using identical settings in each case.

MBP = MBP (Escherichia coli, UniProt P0AEX9); assay: isothermal titration calorimetry (ITC), MBP alone; type: binding; details: in solution
Protocol: as §1

ubiquitin = ubiquitin (Homo sapiens, UniProt P0CG47); assay: pull-down of unlabeled ubiquitin by Tentagel-displayed peptide, probed with Texas Red-labeled anti-ubiquitin antibody; type: binding; details: semi-quantitative
Protocol: To study the behavior of the ubiquitin-targeted chimeric binding element in capture assays, the peptide was synthesized on Tentagel and employed in “pull-down” assays. Beads displaying NH2-[…], a control peptide NH2-[…], or no peptide at all, were incubated with the indicated concentration of unlabeled ubiquitin in the presence of a 1000-fold excess of E. coli proteins (FIG. 26B). After thorough washing, the beads were then probed with Texas Red-labeled anti-ubiquitin-labeled polyclonal antibodies to visualize the bound protein. […] In all cases, the level of fluorescence from the chimeric binding element-displaying beads was much higher than from either set of control beads (see FIG. 26C for a direct comparison).

His6Gal80 [3] = molecular target: T3, His6Gal80 (Saccharomyces cerevisiae, UniProt P04387); assay: lysate experiment: specificity of capture from E. coli lysate (silver stain); type: binding; details: Gal80 5% of total protein, silver staining
T3 construct: His6 (N); made in house; host or cells: E. coli
T3 sequence (P04387 1-435): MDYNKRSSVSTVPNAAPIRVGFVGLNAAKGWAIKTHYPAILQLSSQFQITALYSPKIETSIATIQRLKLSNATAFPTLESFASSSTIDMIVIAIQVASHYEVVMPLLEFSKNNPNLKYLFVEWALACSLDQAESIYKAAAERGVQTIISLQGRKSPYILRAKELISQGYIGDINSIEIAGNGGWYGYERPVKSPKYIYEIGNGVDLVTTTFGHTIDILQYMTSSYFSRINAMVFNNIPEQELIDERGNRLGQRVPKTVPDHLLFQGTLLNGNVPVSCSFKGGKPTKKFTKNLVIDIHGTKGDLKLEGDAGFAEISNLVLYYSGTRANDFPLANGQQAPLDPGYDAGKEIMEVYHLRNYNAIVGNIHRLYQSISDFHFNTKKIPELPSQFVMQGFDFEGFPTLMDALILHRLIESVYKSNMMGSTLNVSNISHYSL
Protocol: Lysate Experiment. E. coli lysate was prepared by growing BL21 cells to an OD600 of 0.8. Cells were lysed by sonication in PBS buffer. After sonication, triton X-100 was added to 1%. His6Gal80 was doped into the E. coli lysate (67 μg/mL) such that it constituted 5% of the total protein. Approximately 0.02 g of Tentagel beads on which the Gal80-binding peptide had been synthesized and deprotected were added to 300 μL of the E. coli lysate containing His6Gal80 and incubated for 2 hours at 4° C. The beads were washed four times for ten minutes each time at 4 with PBS buffer+1% triton X-100 at 150 mM NaCl at 4° C. and then twice with PBS buffer. GSTGal4 AD (activation domain) was pre-incubated with glutathione sepharose beads and then used as a positive control to pull-down His6Gal80 from the lysate under the same conditions. Gel loading dye was added directly to the beads, loaded onto a SDS polyacrylamide gel and analyzed by silver stain.
To address this point, the Gal80 bp/Gal80 pair was again employed. His6Gal80 was doped into an E. coli lysate such that Gal80 represented 5% of the total protein concentration. This solution was then incubated with the Tentagel-bound Gal80 bp followed by thorough washing to remove any unbound material. The composition of the proteins captured by the peptide was then addressed by SDS-PAGE followed by silver staining. […]

His6Gal80 [4] = molecular target: T3, His6Gal80; assay: capturing dilute proteins with Tentagel-bound peptide; type: binding; details: peptide on Tentagel
Protocol: Capturing Dilute Proteins. Approximately 0.014 g of Tentagel beads displaying Gal80 binding peptide was blocked with 10% milk overnight at 4° C. The beads were divided equally into 7 tubes and incubated with 500 μL of buffer containing various amounts of His6Gal80 protein (5 to 400 ng) for 2 hours at 4° C. After washing four times with TBST buffer and twice with PBS, gel loading dye was added directly to the beads and the amount of bound His6Gal80 was determined as described above. A second gel containing known amounts of pure His6Gal80 was analyzed simultaneously and was used as a standard to quantitate the amount of His6Gal80 retained on the beads.
Efficient capture of dilute proteins. In all of the above examples, the protein was loaded onto the peptide-coated bead at a relatively high concentration (300 nM) prior to dilution. Since the concentration of most proteins of interest in a biological sample will be lower, it was of interest to evaluate the ability of a Tentagel-bound peptide to capture a dimeric protein from more dilute solutions. […] After washing, the bound protein was detected by boiling the beads in denaturing loading buffer followed by SDS-PAGE/western, blot analysis of the resulting supernatant. […] Further dilution of the protein in this assay format exceeded the sensitivity of the western blot. […]

Compound `NCCCCN(CC(N)=O)C(=O)CN(Cc1ccc2c(c1)OCO2)C(=O)CN(CCc1ccc(S(N)(=O)=O)cc1)C(=O)CN(CCCCN)C(=O)CNCCc1ccc(S(N)(=O)=O)cc1` [Nbsa-Nlys-Nbsa-Npip-Nlys-CONH2] (H-[N(4-Sulfamoylphenethyl)Gly][Nlys][N(4-Sulfamoylphenethyl)Gly][Gly(N-piperonyl)][Nlys]-NH2) has a Kd (GST) of 62 µM.

In the case of “PREbp: Pre1 binding peptide isolated by phage display, free synthetic peptide before six polar amino acids were added (SHSTARGEQERAAVYLWFTYDHRSER)”, the solubility (solubility observations) is reported as “insoluble”.

In the case of `NCCCCNCC(=O)N(CC(=O)N(CCCCN)CC(=O)N(CCO)CC(=O)N(CCCCN)CC(=O)N(CCCCN)CC(=O)N(CCCCN)CC(=O)N(CCCCN)CC(=O)N(CC(=O)N(CC(N)=O)Cc1ccc2c(c1)OCO2)Cc1ccc2c(c1)OCO2)Cc1ccc2c(c1)OCO2` [NH2-Nlys-Npip-Nlys-Nser-Nlys-Nlys-Nlys-Nlys-Npip-Npip] (H-[Nlys][Gly(N-piperonyl)][Nlys][Gly(N-CH2CH2OH)][Nlys][Nlys][Nlys][Nlys][Gly(N-piperonyl)][Gly(N-piperonyl)]-NH2; N-terminus and C-terminus assumed), the Kd (MBP-Mdm2 [1]) is reported as 378 µM.

In the case of “NH2-Lys(Chalcone)-Nlys-Npip-Nlys-Nser-Nlys-Nlys-Nlys-Nlys-Npip-Npip [formula 2]”, the “solid phase MBP-Mdm2 affinity relative to components” value (MBP-Mdm2 [2]; 100 nM protein, 1M NaCl, 1% Tween-20, 100-fold excess E. coli proteins) is reported as “higher affinity for Mdm2 than does either individual component of the chimera”, the “lowest protein concentration at which capture of Mdm2 was apparent” value (MBP-Mdm2 [2]; 150 mM NaCl, 0.1% detergent, 100-fold excess E. coli proteins) is reported as 10 nM and the Kd (MBP) is reported as over 6000 µM. The Kd (MBP-Mdm2 [1]; in solution, read-out: equilibrium dissociation constant (KD), ITC) was 1.3 µM and the “improvement in affinity relative to parent compound formula 1” value (MBP-Mdm2 [1]; solution, ITC) was “at least 170 fold”.

For `CC(C)C[C@H](NC(=O)CNC(=O)[C@@H](N)Cc1c[nH]c2ccccc12)C(=O)N[C@@H](CCCNC(=N)N)C(=O)N[C@@H](C)C(=O)N[C@@H](CC(C)C)C(=O)N[C@@H](CCC(=O)O)C(=O)N[C@@H](CO)C(=O)N[C@@H](CCCNC(=N)N)C(=O)N[C@@H](Cc1c[nH]c2ccccc12)C(=O)N[C@@H](CC(=O)O)C(=O)N[C@@H](CCCNC(=N)N)C(=O)N[C@@H](Cc1ccc(O)cc1)C(=O)N[C@@H](Cc1ccc(O)cc1)C(=O)N[C@@H](Cc1ccccc1)C(=O)O` (H-WGLRALESRWDRYYF-OH; C-terminus assumed), the “functional dissociation constant of immobilized chimeric binding element” value (ubiquitin) was “at least in the low nanomolar range”.

For `NCCCCNCC(=O)N(CCc1ccc(S(N)(=O)=O)cc1)CC(=O)N(CCCCN)CC(=O)N(CCO)CC(=O)N(CCc1ccc(S(N)(=O)=O)cc1)CC(=O)N(CC(=O)N(CCc1ccc(S(N)(=O)=O)cc1)CC(=O)N(CC(N)=O)Cc1ccc2c(c1)OCO2)Cc1ccc2c(c1)OCO2` [Nlys-Nbsa-Nlys-Nser-Nbsa-Npip-Nbsa-Npip] (H-[Nlys][N(4-Sulfamoylphenethyl)Gly][Nlys][Gly(N-CH2CH2OH)][N(4-Sulfamoylphenethyl)Gly][Gly(N-piperonyl)][N(4-Sulfamoylphenethyl)Gly][Gly(N-piperonyl)]-NH2), the “MBP-Mdm2 protein retained by immobilized peptoid” value (MBP-Mdm2 [2]; native protein 1 μM, 1000-fold excess E. coli proteins, Western blot) was “about 10%”, the Kd (MBP) was over 1000 µM and the Kd (MBP-Mdm2 [1]) was 37 µM.

For DLQRDTNKGFHEMFDWDYQN [Ga180bpscram], the “proteins retained from Gal80-doped E. coli lysate” value (His6Gal80 [3]) was “No detectable proteins were retained”.

In the case of “Nmba-Nbsa-Nleu-Nlys-Npip-Nmba-Nleu-Nleu [random peptoid, reference compound]”, the “native MBP-Mdm2 retained” value (MBP-Mdm2 [2]; 1000-fold excess E. coli proteins, Western blot) is reported as “No detectable MBP-Mdm2 protein was retained”.

For `CSCC[C@H](NC(=O)[C@H](CC(=O)O)NC(=O)[C@H](CCC(N)=O)NC(=O)[C@H](CC(=O)O)NC(=O)[C@@H](N)Cc1ccc(O)cc1)C(=O)N[C@@H](CCC(N)=O)C(=O)N[C@@H](CC(N)=O)C(=O)N[C@@H](CC(N)=O)C(=O)N[C@H](C(=O)N[C@@H](Cc1ccccc1)C(=O)N[C@@H](CC(=O)O)C(=O)N[C@@H](CC(=O)O)C(=O)N[C@@H](CC(C)C)C(=O)N[C@@H](Cc1ccccc1)C(=O)N[C@@H](Cc1c[nH]c2ccccc12)C(=O)N[C@@H](CCCCN)C(=O)N[C@@H](CCC(=O)O)C(=O)NCC(=O)N[C@@H](Cc1c[nH]cn1)C(=O)N[C@@H](CCCNC(=N)N)C(=O)O)[C@@H](C)O` [Ga180bp] (H-YDQDMQNNTFDDLFWKEGHR-OH; N-terminus and C-terminus assumed), the “dissociation constant of immobilized peptide for Gal80 dimer” value (His6Gal80 [4]) was “sub-nanomolar”.
